Source: PubChem BioAssay AID1963437 (Molecular Pharmacology Branch, DTP, NCI, 2024)

Tested on: OVCAR-8 complex spheroid, growth inhibition
Test: Anticancer human tumor OVCAR-8 cell line growth inhibition [Asc];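 also: spheroids exposed to agents for 7 days before readout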;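 as to viability, T/C: percent viability relative to DMSO vehicle wells taken as 100%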
Conditions: for IC50: curve of first compound; for viability, T/C: stronger effect = lower value
Method in brief: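 Complex spheroids combining tumor cells with HUVEC endothelial cells and human MSCs, at 37 degrees C, 5% CO2; agents tested alone or combined, half-log dilutions from at or near clinical Cmax, or 10 microM if Cmax unknown.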

## CCN1CCN(Cc2ccc(Nc3ncc(F)c(-c4cc(F)c5nc(C)n(C(C)C)c5c4)n3)nc2)CC1 + CNC(C)C(=O)NC1CN(S(=O)(=O)c2cccc(S(=O)(=O)N3CCC4CCC(C(=O)NC(c5ccccc5)c5ccccc5)N4C(=O)C(NC(=O)C(C)NC)C3)c2)CCC2CCC(C(=O)NC(c3ccccc3)c3ccccc3)N2C1=O
Second compound 0.00316 µM
  IC50: > 1000 nM
Second compound 0.01 µM
  IC50: > 1000 nM
Second compound 0.0316 µM
  IC50: > 1000 nM
Second compound 0.1 µM
  IC50: > 1000 nM
Second compound 0.316 µM
  IC50: > 1000 nM
Second compound 1 µM
  IC50: > 1000 nM
Second compound 0.00316 µM, first compound 0.00316 µM
  viability, T/C: 102%
Second compound 0.00316 µM, first compound 0.01 µM
  viability, T/C: 95.7%
Second compound 0.00316 µM, first compound 0.0316 µM
  viability, T/C: 96%
Second compound 0.00316 µM, first compound 0.1 µM
  viability, T/C: 85.9%
Second compound 0.00316 µM, first compound 0.316 µM
  viability, T/C: 111%
Second compound 0.00316 µM, first compound 1 µM
  viability, T/C: 114%
Second compound 0.01 µM, first compound 0.00316 µM
  viability, T/C: 91.3%
Second compound 0.01 µM, first compound 0.01 µM
  viability, T/C: 86.7%
Second compound 0.01 µM, first compound 0.0316 µM
  viability, T/C: 85%
Second compound 0.01 µM, first compound 0.1 µM
  viability, T/C: 85.3%
Second compound 0.01 µM, first compound 0.316 µM
  viability, T/C: 99.9%
Second compound 0.01 µM, first compound 1 µM
  viability, T/C: 148%
Second compound 0.0316 µM, first compound 0.00316 µM
  viability, T/C: 90.6%
Second compound 0.0316 µM, first compound 0.01 µM
  viability, T/C: 88.5%
Second compound 0.0316 µM, first compound 0.0316 µM
  viability, T/C: 84.7%
Second compound 0.0316 µM, first compound 0.1 µM
  viability, T/C: 81.2%
Second compound 0.0316 µM, first compound 0.316 µM
  viability, T/C: 91.2%
Second compound 0.0316 µM, first compound 1 µM
  viability, T/C: 116%
Second compound 0.1 µM, first compound 0.00316 µM
  viability, T/C: 84%
Second compound 0.1 µM, first compound 0.01 µM
  viability, T/C: 78%
Second compound 0.1 µM, first compound 0.0316 µM
  viability, T/C: 83.9%
Second compound 0.1 µM, first compound 0.1 µM
  viability, T/C: 92.5%
Second compound 0.1 µM, first compound 0.316 µM
  viability, T/C: 96.7%
Second compound 0.1 µM, first compound 1 µM
  viability, T/C: 111%
Second compound 0.316 µM, first compound 0.00316 µM
  viability, T/C: 75.6%
Second compound 0.316 µM, first compound 0.01 µM
  viability, T/C: 72%
Second compound 0.316 µM, first compound 0.0316 µM
  viability, T/C: 82.5%
Second compound 0.316 µM, first compound 0.1 µM
  viability, T/C: 74.7%
Second compound 0.316 µM, first compound 0.316 µM
  viability, T/C: 102%
Second compound 0.316 µM, first compound 1 µM
  viability, T/C: 111%
Second compound 1 µM, first compound 0.00316 µM
  viability, T/C: 79.8%
Second compound 1 µM, first compound 0.01 µM
  viability, T/C: 72.3%
Second compound 1 µM, first compound 0.0316 µM
  viability, T/C: 88.1%
Second compound 1 µM, first compound 0.1 µM
  viability, T/C: 82.6%
Second compound 1 µM, first compound 0.316 µM
  viability, T/C: 91.8%
Second compound 1 µM, first compound 1 µM
  viability, T/C: 104%

## NC(=O)C(=Cn1cnc(-c2cc(C(F)(F)F)cc(C(F)(F)F)c2)n1)c1cncnc1 + CNC(C)C(=O)NC1CN(S(=O)(=O)c2cccc(S(=O)(=O)N3CCC4CCC(C(=O)NC(c5ccccc5)c5ccccc5)N4C(=O)C(NC(=O)C(C)NC)C3)c2)CCC2CCC(C(=O)NC(c3ccccc3)c3ccccc3)N2C1=O
Second compound 0.00316 µM
  IC50: 261 nM
Second compound 0.01 µM
  IC50: > 300 nM
Second compound 0.0316 µM
  IC50: > 300 nM
Second compound 0.1 µM
  IC50: 120 nM
Second compound 0.316 µM
  IC50: 73.2 nM
Second compound 1 µM
  IC50: 67.9 nM
Second compound 0.00316 µM, first compound 0.000949 µM
  viability, T/C: 140%
Second compound 0.00316 µM, first compound 0.003 µM
  viability, T/C: 111%
Second compound 0.00316 µM, first compound 0.00949 µM
  viability, T/C: 110%
Second compound 0.00316 µM, first compound 0.03 µM
  viability, T/C: 153%
Second compound 0.00316 µM, first compound 0.0949 µM
  viability, T/C: 95.6%
Second compound 0.00316 µM, first compound 0.3 µM
  viability, T/C: 43.8%
Second compound 0.01 µM, first compound 0.000949 µM
  viability, T/C: 123%
Second compound 0.01 µM, first compound 0.003 µM
  viability, T/C: 129%
Second compound 0.01 µM, first compound 0.00949 µM
  viability, T/C: 110%
Second compound 0.01 µM, first compound 0.03 µM
  viability, T/C: 123%
Second compound 0.01 µM, first compound 0.0949 µM
  viability, T/C: 91.2%
Second compound 0.01 µM, first compound 0.3 µM
  viability, T/C: 54%
Second compound 0.0316 µM, first compound 0.000949 µM
  viability, T/C: 117%
Second compound 0.0316 µM, first compound 0.003 µM
  viability, T/C: 114%
Second compound 0.0316 µM, first compound 0.00949 µM
  viability, T/C: 112%
Second compound 0.0316 µM, first compound 0.03 µM
  viability, T/C: 129%
Second compound 0.0316 µM, first compound 0.0949 µM
  viability, T/C: 74.5%
Second compound 0.0316 µM, first compound 0.3 µM
  viability, T/C: 48.4%
Second compound 0.1 µM, first compound 0.000949 µM
  viability, T/C: 122%
Second compound 0.1 µM, first compound 0.003 µM
  viability, T/C: 91.6%
Second compound 0.1 µM, first compound 0.00949 µM
  viability, T/C: 121%
Second compound 0.1 µM, first compound 0.03 µM
  viability, T/C: 138%
Second compound 0.1 µM, first compound 0.0949 µM
  viability, T/C: 55.3%
Second compound 0.1 µM, first compound 0.3 µM
  viability, T/C: 29.5%
Second compound 0.316 µM, first compound 0.000949 µM
  viability, T/C: 109%
Second compound 0.316 µM, first compound 0.003 µM
  viability, T/C: 115%
Second compound 0.316 µM, first compound 0.00949 µM
  viability, T/C: 113%
Second compound 0.316 µM, first compound 0.03 µM
  viability, T/C: 122%
Second compound 0.316 µM, first compound 0.0949 µM
  viability, T/C: 31.3%
Second compound 0.316 µM, first compound 0.3 µM
  viability, T/C: 7.46%
Second compound 1 µM, first compound 0.000949 µM
  viability, T/C: 97%
Second compound 1 µM, first compound 0.003 µM
  viability, T/C: 103%
Second compound 1 µM, first compound 0.00949 µM
  viability, T/C: 109%
Second compound 1 µM, first compound 0.03 µM
  viability, T/C: 127%
Second compound 1 µM, first compound 0.0949 µM
  viability, T/C: 25.8%
Second compound 1 µM, first compound 0.3 µM
  viability, T/C: 4.16%
